According to patent publication US10953115B2, “Production of sterile active pharmaceutical ingredients” (Icrom S.R.L., priority 2012, dated 2021):

Key:
[1] = Appearance and related substances (USP Brinzolamide monograph) after gamma-ray sterilisation; format: physicochemical
Experimental: All the analysis were performed according to USP Brinzolamide monograph, sterility and bioburden test were performed according to Eur. Ph. and USP.
Two related substances (impurities) are described in the USP monograph: Impurity A and Impurity B.
The material was tested according to USP, details about appearance of the powder, related substances and sterility were given in Table 1.
The material was tested according to USP, details about appearance of the powder, related substances and sterility were given in Table 2.
The material was tested according to USP, details about appearance of the powder, related substances and sterility were given in Table 3.
The material was tested according to USP, details about appearance of the powder, related substances and sterility were given in Table 4.
The material was tested according to USP, details about appearance of the powder, related substances and sterility were given in Table 5.

[2] = stated as reason why sterile filtration is not achievable; cited from earlier work
[3] = micronised, LDPE liner in double barrier foil (no vacuum), 25 KGy, RT
[4] = micronised, packed under vacuum, 25 KGy, RT
[5] = micronised, under vacuum and helium, 25 KGy, −78° C.
[6] = micronised, under vacuum and nitrogen, 25 KGy, −78° C.
[7] = not-micronized, LDPE liner in barrier foil, 10 KGy, RT
[8] = not-micronized, LDPE liner in barrier foil, 15 KGy, RT
[9] = not-micronized, LDPE liner in barrier foil, 20 KGy, RT
[10] = not-micronized, LDPE liner in barrier foil, 25 KGy, RT

SMILES: CCN[C@H]1CN(CCCOC)S(=O)(=O)c2sc(S(N)(=O)=O)cc21 [Brinzolamide]
- Compliance with USP specifications ([1]; Example 1: not-micronized, 10, 15, 20 and 25 KGy, RT): complies with the USP specifications apart the appearance of the powder in the 20 and 25 KGy trials
- Compliance with USP specification ([1]; Example 2: micronised, no vacuum, 25 KGy, RT): does not complies with USP specification
- Compliance with USP specification ([1]; Example 3: micronised, under vacuum, 25 KGy, RT): complies with USP specification
- Compliance with USP specification ([1]; Example 4: micronised, under vacuum and nitrogen, 25 KGy, −78° C.): complies with USP specification
- Compliance with USP specification ([1]; Example 5: micronised, under vacuum and helium, 25 KGy, −78° C.): complies with USP specification
- Appearance [1, 3]: Almost White powder
- Impurity A [1, 3]: Not detected
- Impurity B [1, 3]: 0.29%
- Impurity C [1, 3]: <0.05%
- Impurity D [1, 3]: 0.62%
- Total Impurities [1, 3]: 1.4%
- Appearance [1, 4]: White powder
- Impurity A [1, 4]: Not detected
- Impurity B [1, 4]: 0.09%
- Impurity C [1, 4]: <0.05%
- Impurity D [1, 4]: 0.30%
- Total Impurities [1, 4]: 0.6%
- Appearance [1, 5]: White powder
- Impurity A [1, 5]: Not detected
- Impurity B [1, 5]: 0.06%
- Impurity C [1, 5]: <0.05%
- Impurity D [1, 5]: 0.11%
- Total Impurities [1, 5]: 0.2%
- Appearance [1, 6]: White powder
- Impurity A [1, 6]: Not detected
- Impurity B [1, 6]: 0.08%
- Impurity C [1, 6]: <0.05%
- Impurity D [1, 6]: 0.16%
- Total Impurities [1, 6]: 0.3%
- Appearance [1, 7]: White powder
- Impurity A [1, 7]: Not detected
- Impurity B [1, 7]: 0.06%
- Impurity C [1, 7]: <0.05%
- Impurity D [1, 7]: 0.11%
- Total Impurities [1, 7]: 0.2%
- Appearance [1, 8]: White powder
- Impurity A [1, 8]: Not detected
- Impurity B [1, 8]: 0.07%
- Impurity C [1, 8]: <0.05%
- Impurity D [1, 8]: 0.14%
- Total Impurities [1, 8]: 0.2%
- Appearance [1, 9]: Greenish powder
- Impurity A [1, 9]: Not detected
- Impurity B [1, 9]: 0.10%
- Impurity C [1, 9]: <0.05%
- Impurity D [1, 9]: 0.19%
- Total Impurities [1, 9]: 0.3%
- Appearance [1, 10]: Greenish powder
- Impurity A [1, 10]: Not detected
- Impurity B [1, 10]: 0.10%
- Impurity C [1, 10]: <0.05%
- Impurity D [1, 10]: 0.21%
- Total Impurities [1, 10]: 0.4%
- Solubility [2]: poor solubility
